Source: patent US10265329B2, “Altering steroid metabolism for treatment of steroid-dependent disease” (THE CLEVELAND CLINIC FOUNDATION, priority 2015, dated 2019)

How the values were obtained:
[1] = biological target: T1, 3βHSD (Homo sapiens, UniProt P14060); test: Xenograft metabolism: [3H]-DHEA to AD in minced xenograft tumors; conditions: LNCaP and VCaP xenografts, 0.1-10 μM
T1 construct: endogenous in cells; host or cells: LNCaP, VCaP
T1 sequence (P14060 2-373 limits assumed): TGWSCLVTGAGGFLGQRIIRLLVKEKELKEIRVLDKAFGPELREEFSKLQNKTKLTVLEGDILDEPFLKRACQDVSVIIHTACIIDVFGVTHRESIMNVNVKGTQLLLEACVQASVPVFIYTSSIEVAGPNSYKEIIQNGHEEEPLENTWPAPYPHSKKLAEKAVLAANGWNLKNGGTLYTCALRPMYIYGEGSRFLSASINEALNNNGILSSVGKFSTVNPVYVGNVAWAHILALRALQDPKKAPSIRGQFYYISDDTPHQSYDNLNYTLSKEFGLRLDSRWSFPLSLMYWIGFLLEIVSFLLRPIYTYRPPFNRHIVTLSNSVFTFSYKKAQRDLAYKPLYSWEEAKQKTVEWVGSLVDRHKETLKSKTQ
Method: Cell Line Metabolism: Cells were seeded and incubated in 12-well plates with 0.2 million cells/well for ˜24 h and then incubated with a mixture of radioactive ([^3H]-labeled) and non-radioactive androgens (final concentration, 100 nM; ˜1,000,000 cpm/well; PerkinElmer, Waltham, Mass.) at 37° C. Aliquots of medium were collected at the indicated times. Collected medium was treated with 1,000 units of β-glucuronidase (Helix pomatia; Sigma-Aldrich) at 65° C. for 2 h, extracted with 860 μL ethyl acetate:isooctane (1:1), and concentrated under nitrogen gas. Xenograft Metabolism: 10^7 LNCaP or VCaP cells were injected subcutaneously with Matrigel into surgically orchiectomized NSG mice that were implanted with 5 mg 90-day sustained-release DHEA pellets (Innovative Research of American, Sarasota, Fla.). […] Each xenograft was analyzed in triplicate in at least three independent experiments. […]
Dried samples were reconstituted in 50% methanol and injected into the HPLC. […] Alternatively, dried samples were applied to plastic-backed silica gel plates and separated by thin-layer chromatography (TLC) using a mobile phase of 3:1 chloroform:ethyl acetate, followed by exposure of the plates to a phosphorimager screen and quantitated with a Storm model 860 phosphorimager (Applied Biosystems, Foster City, Calif.). […]

[2] = Abi conversion to D4A in mouse serum after Abi acetate; assay type: in vivo; conditions: mice administered Abi acetate i.p.
Method: FIG. 1A-FIG. 1E provides chemical structures and graphs showing the structural consequences of the conversion from Abi to D4A that occurs in both mice, and patients, and requires 3βHSD. A, Schematic of Abi conversion to D4A. * double bond and C3-position for substrates and products of 3βHSD. B, Abi is converted to D4A in vivo. Abi acetate was injected i.p. in 5 mice. Blood was collected 2 h and 4 h after injection. Serum concentrations of Abi and D4A were quantified by mass spectrometry and are represented as the percentage of the sum total of Abi+D4A. C, D4A is detectable in all patients (n=12) with CRPC treated with Abi acetate. D, Representative mass spectrometry tracing of D4A and Abi from the serum of a patient treated with Abi acetate. E, 3βHSD1 is capable of converting Abi to D4A. LAPC4 cells overexpressing 3βHSD1 were treated with 10 μM Abi (or [^3H]-DHEA) for 24 h. Abi, D4A (as a percentage of Abi+D4A), [^3H]-DHEA and [^3H]-DHEA metabolites (labeled metabolites), were separated by HPLC. Results are shown as mean (n=3)±s.d. with biological replicates. The experiment was repeated independently at least 3 times.

[3] = system: AR chromatin occupancy on PSA, TMPRSS2 and FKBP5 regulatory elements; test: AR chromatin occupancy ChIP assay in LNCaP cells; assay type: cell-based, human; conditions: 3 h
Method: LNCaP cells were serum-starved for at least 48 h and treated with indicated drugs and DHT for 3 h. A ChIP assay was performed with an anti-AR antibody (Santa Cruz, sc-816) as described previously. Li et al., Proc Natl Acad Sci USA. 108:3116-3123 (2011). All of the precipitated DNA samples were quantified by qPCR and normalized to input DNA. All ChIP experiments were performed at least three times. Primers used for ChIP experiments are from experiments previously described. Evaul et al., Endocrinology, 151:3514-3520 (2010).

[4] = system: VCaP xenografts; test: VCaP xenograft progression in orchiectomized mice with DHEA pellet; assay type: in vivo; conditions: 0.5 mmol/kg/d i.p.; compared to the Abi acetate group, P=0.011
Method: Male NSG mice, 6 to 8 weeks of age were obtained from the Cleveland Clinic Biological Resources Unit facility. All mouse studies were conducted under a protocol approved by the Cleveland Clinic Institutional Animal Care and Use Committee. Sample size was determined based on our prior studies of steroidogenesis inhibition in xenograft models of CRPC. Chang et al., Proc Natl Acad Sci USA., 108:13728-13733 (2011). Criteria for progression were determined based on similar criteria that are utilized for clinical progression. Mice were surgically orchiectomized and implanted with a 5 mg 90-day sustained-release DHEA pellet (Innovative Research of America) to mimic CRPC in the context of human adrenal physiology. Two days later, 10^7 VCaP or C4-2 cells were injected subcutaneously with matrigel. Once tumors reached 300 mm^3 (length×width×height×0.52), mice were arbitrarily (but not strictly randomized) assigned to vehicle (n=9 or 10 mice for VCaP and C4-2 respectively), Abi acetate (n=10 mice for both cell lines), D4A (n=10 mice for both cell lines) or enzalutamide (n=11 for C4-2) treatment groups. […] Tumor volume was measured daily, and time to increase in tumor volume by 20% was determined. […] The significance of the difference between treatment groups was assessed by Kaplan-Meier survival analysis using a log-rank test in SigmaStat 3.5.

C[C@]12CCC(=O)C=C1CC[C@@H]1[C@@H]2CC[C@]2(C)C(c3cccnc3)=CC[C@@H]12 [Compound D4A, 17-(3-Pyridyl)androsta-4,16-dien-3-one]
potency relative to Abi in blocking conversion from DHEA by 3βHSD to AD [1]: 10 fold | detection in sera of mice [2]: detectable | inhibition of DHT-induced AR chromatin occupancy [3]: superior to Abi and somewhat lower than enzalutamide | time to tumor progression (>20% increase in tumor volume) [4]: significantly delayed
